ChEMBL document CHEMBL1121444, “Biological significance and therapeutic potential of prostacyclin” (J Med Chem, 1980)

Experiment: Compound was evaluated for half life at 37 degree Centigrade

SMILES	half-life [min]
CCCCC[C@H](O)/C=C/C1OC2CC(O2)[C@@H]1C/C=C\CCCC(=O)O (some centres not stated)	0.5
CCCCC[C@H](O)/C=C/[C@@H]1[C@H]2C/C(=C/CCCC(=O)O)O[C@H]2C[C@H]1O [EPOPROSTENOL]	3
